Measurements taken from patent publication US9266815B2, “Anti-metastatic agents predicated upon polyamine macrocyclic conjugates” (University of Central Florida Research Foundation, Inc., priority 2012, dated 2016).
Entries after “also recorded” stand apart in the source; their conditions may differ.

Legend:
[1] = tested on: CHO cells; test: Cytotoxicity (MTS cell growth) in CHO cells; format: cell-based, Chinese hamster; conditions: 48 h at 37° C., 1 mM AG 24 h prior to drug addition, triplicate
Description: (§1) CHO cells were chosen along with a mutant cell line (CHO-MG*) to comment on how the synthetic conjugates gain access to the cells.^2c-e, 6 As discussed earlier, the CHO-MG* cell line is polyamine-transport deficient and represents a model for alternative modes of entry (other than PTS) including passive diffusion or use of another transporter. The CHO cell line on the other hand, represents cells with high polyamine transport activity.^7b, 10c A comparison of toxicity in these two CHO cell lines allowed for a screen that would detect selective use of the polyamine transporter. High utilization of the PTS would be very toxic to CHO cells. However, the CHO-MG* cells should be less sensitive to drugs which target the PTS.^2c-e, 6 Ultimately, a CHO-MG*/CHO IC50 ratio was determined to assess PTS selectivity. A high IC50 ratio (>>2) would be observed for PTS selective compounds.
(§2) CHO and CHO-MG* cells were grown in RPMI 1640 medium supplemented with 10% fetal calf serum and 1% penicillin/streptomycin. Note: the media must contain L-proline (2 μg/mL) for proper growth of the CHO-MG* cells. L3.6p1 cells were grown in RPMI 1640 medium supplemented with 10% FBS and 1% penicillin/streptomycin. All cells were grown at 37° C. under a humidified 5% CO2 atmosphere Aminoguanidine (1 mM for CHO and CHO-MG*, and 250 μM for L3.6p1) was added to the growth medium to prevent oxidation of the drugs by the enzyme (bovine serum amine oxidase) present in calf serum. Cells in early to mid-log phase growth were used.
(§3) Cell growth was assayed in sterile 96-well microtiter plates (Costar 3599, Corning, N.Y., USA). CHO and CHO-MG* cells were plated at 10,000 cells/mL. L3.6p1 cells were plated at 5,000 cells/mL. Drug solutions (10 μL per well) of appropriate concentration were added after an overnight incubation for each CHO cell line (90 μL of cell suspension). After exposure to the drug for 48 h, cell growth was determined by measuring formazan formation from 3-(4,5-dimethylthiazol-2-yl)-5-(3-carboxymethoxyphenyl)-2-(4-sulphenyl)-2H-tetrazolium, inner salt (MTS) using a SynergyMx BioTek microplate reader for absorbance ([…]) measurements.^23 A 4 h incubation period was used for the MTS assay in accordance with the manufacturer's protocol.^23

[2] = tested on: CHO-MG* cells; test: Cytotoxicity (MTS cell growth) in CHO-MG* cells; format: cell-based, Chinese hamster; conditions: for IC50: 48 h at 37° C., 1 mM AG 24 h prior to drug addition, triplicate
Description: as §1, §2, §3

[3] = tested on: L3.6pl cells; test: Wound healing assay (cell migration); format: cell-based, human; conditions: for anti-migration ability relative to parent 44a (in words): dosed at 0.6 μM
Description: A wound healing assay was employed to evaluate the anti-migration properties of compounds 44a-b, 46a-b, and 47a-b in L3.6p1 cells. This involved growing a monolayer of L3.6p1 cells and then scraping the monolayer with a sterile pipet tip to create a cell free zone in the middle of the well. The experiment was run in 96-well plate format. Wound healing was measured by time-course imaging of each well using a computer-controlled microscope with an x,y,z stage which allowed for reproducible imaging over time. Each drug was evaluated for its dose-dependent inhibition of cell migration. Each compound was evaluated at its own MTD in order to avoid cytotoxic effects which are well known to bias migration studies.^37a In addition, each compound was also tested at the MTD of 44a (Motu33) in order to directly compare the potency of these compounds at the same concentration.
Taking pictures of each wound needed to be done under a 2.5× objective in order to view ˜95% of each well. […] This problem was alleviated through the use of the ImageJ software.^47 This software allowed for enhancing the contrast between areas which were occupied by cells versus areas devoid of cells. In this regard, the software was able to accurately define the edges of each boundary. These capabilities then allowed for accurate area calculations which are seen in Table 3.
Anti-migratory properties were assayed in 96-well microtiter plates (Costar 3599, Corning, N.Y., USA). A stock suspension of L3.6p1 cells (5.5×10^5 cells/mL) was prepared. L3.6p1 cells (90 μL of stock/well) were plated and allowed to grow to a confluent monolayer (48 h). Each well was then scraped with a 1 μL sterile pipet tip, photographed with a Zeiss Stemi Microscope (2.5× objective) (time=0), and then allowed to incubate for an additional 48 h period (time=48 h). Over this 48 h period, the untreated control migrated to fill 50% of the original wound. At time zero, the respective drug solutions (10 μL) were added and cell migration monitored after 48 h incubation at 37° C. with 5% CO2. After drug exposure for 48 h, respective time=48 h photographs were taken by the Zeiss Stemi Microscope. These pictures (time=0 and time=48 h) were then compared and analyzed through the use of ImageJ software^47 by calculating the average area invaded by L3.6p1 cells.

[4] = tested on: L3.6pl cells; test: Cytotoxicity IC50 and MTD determination in L3.6pl cells; format: cell-based; conditions: for IC50 / L3.6pl MTD: 48 h at 37° C.; for IC50: 250 μM AG 24 h prior to drug addition; for L3.6pl MTD: maximum tolerated dose, 250 μM AG; for MTD higher than 0.6 μM (MTD of 44a): relative to parent 44a
Description: The MTD (Maximum tolerated dose) was determined for each of these compounds (Table III-2).
Note: the media must contain L-proline (2 μg/mL) for proper growth of the CHO-MG* cells. […] Cells in early to mid-log phase growth were used.
CHO and CHO-MG* cells were plated at 10,000 cells/mL. L3.6p1 cells were plated at 5,000 cells/mL. Drug solutions (10 μL per well) of appropriate concentration were added after an overnight incubation for each CHO cell line (90 μL of cell suspension).

[5] = tested on: human pancreatic cancer L3.6p1 cells; test: Orthotopic mouse model, liver micrometastases; format: in vivo
Description: In one embodiment, the cancer is breast cancer. In another embodiment, the cancer is pancreatic cancer. […] The control was saline solution. The respective drugs (44a and 45) were dosed at their respective maximum tolerated dose (MTD).

[6] = tested on: original CHO-MG line and CHO; conditions: reported earlier (ref 2f); cited from earlier work
[7] = tested on: yeast cells; conditions: 60 μM; cited from earlier work
[8] = tested on: MDA-231 breast carcinoma cells; conditions: cited from earlier work
[9] = tested on: pancreatic tumor (L3.6p1 cells); test: Mouse pancreatic tumor model, tumor size; format: in vivo; conditions: for tumor volume size: versus untreated control, preliminary data not shown
Description: Further, the present inventors have found a dramatic increase in the therapeutic window available to these new agents relative to the parent compound 44a. These large carbocycles (e.g., the macrocyclic core) and carbocycle-alkyl groups (e.g., cyclopentadecyl-CH2— is preferred) represent a new N-substituent which imparts the unique properties of anti-migration activity and lower toxicity. Advantageously, the compounds described herein may be administered alone or in combination with known and/or new therapies (e.g., other chemotherapeutic agents or radiation) to help treat or prevent the spread of primary tumors and allow time for the intervention (e.g., other chemotherapeutic) to work on the primary tumor.
Thus, this represents an exciting unexpected discovery that not only can compounds of the present invention reduce metastasis, they reduce the tumor itself.

[10] = tested on: MDA-MB-231 cells; conditions: cited from earlier work
[11] = 2 μM (MTD of the conjugate), 48 h
[12] = Homo sapiens, 0.6 μM, 48 h, 250 μM AG

SMILES: NCCCCNCCCCNC1CCCCCCCCCCCCCC1 [Compound 46b, N^1-(4-Aminobutyl)-N^4-cyclopentadecylbutane-1,4-diamine]
- IC50 ([1]; Cricetulus griseus, CHO): 4.53 µM
- IC50 ([2]; Cricetulus griseus, CHO-MG): 5.18 µM
- anti-migration property (in words) [3]: have this anti-migration property
- % Cell Migration ([3]; 0.6 μM, 48 h, 250 μM AG): 32.5 (±4.3) %
- % Cell Migration [3, 11]: 31.6 (±0.5) %
- inhibition at 2 µM ([3]; Homo sapiens, L3.6pl, 2 μM (MTD of the conjugate), 48 h): 33.4%
- inhibition at 0.6 µM [3, 12]: 31.4%
- IC50 ([4]; Homo sapiens, L3.6pl): 2.82 µM
- L3.6pl MTD [4]: 2.0 µM

SMILES: NCCCCNCCCCNCC1CCCCCCCCCCCCCC1 [Compound 47b, N^1-(4-aminobutyl)-N^4-(cyclopentadecylmethyl)butane-1,4-diamine]
- IC50 ([1]; Cricetulus griseus, CHO): 47.8 µM
- IC50 ([2]; Cricetulus griseus, CHO-MG): 45.5 µM
- % Cell Migration ([3]; 0.6 μM, 48 h, 250 μM AG): 33.4 (±1.8) %
- % Cell Migration ([3]; 40 μM (MTD of the conjugate), 48 h): 25.9 (±2.1) %
- inhibition at 40 µM ([3]; Homo sapiens, L3.6pl, 40 μM (MTD of the conjugate), 48 h): 45.3%
- inhibition at 0.6 µM [3, 12]: 29.6%
- anti-migration ability relative to parent 44a (in words) [3]: dramatic increase in anti-migration ability
- IC50 ([4]; Homo sapiens, L3.6pl): 48.7 µM
- MTD higher than 0.6 μM (MTD of 44a) ([4]; L3.6pl): > 60 fold
- L3.6pl MTD [4]: 40 µM

SMILES: NCCCNCCCNC1CCCCCCCCCCCCCC1 [Compound 46a, N(3-Aminopropyl)-N3-cyclopentadecylpropane-1,3-diamine]
- IC50 [1]: 2.84 µM
- IC50 [2]: 5.95 µM
- anti-migration property (in words) [3]: have this anti-migration property
- % Cell Migration ([3]; 0.6 μM, 48 h, 250 μM AG): 38.2 (±2.5) %
- % Cell Migration Inhibition ([3]; 0.6 μM, 48 h, 250 μM AG): 19.3 (±1.3) %
- % Cell Migration [3, 11]: 31.8 (±0.1) %
- % Cell Migration Inhibition [3, 11]: 32.9 (±0.1) %
- IC50 [4]: 2.81 µM
- L3.6pl MTD [4]: 2.0 µM

SMILES: CCN(CCCNCCCN)Cc1c2ccccc2cc2ccccc12 [AntNEt33]
- anti-metastatic properties in vivo ([5]; compared with dihydromotuporamine C): failed to mimic the anti-metastatic properties

SMILES: NCCCNCCCN1CCCCCCCCCCCCCC1 [Compound 44a, dihydromotuporamine C, reference compound]
- IC50 ratio in the original CHO-MG line and CHO [6]: 1
- degree of metastasis (liver micrometastases per slide) ([5]; dosed at MTD, control saline, FIG. 7): effective in reducing the degree of metastasis
- growth of yeast cells [7]: fully inhibit the growth
- cytotoxicity (in words) [8]: highly cytotoxic
- IC50 ([1]; Cricetulus griseus, CHO): 2.9 µM
- IC50 ([2]; Cricetulus griseus, CHO-MG): 2.96 µM
- CHO-MG*/CHO IC50 ratio ([2]; measure of PTS selectivity): 1
- tumor volume size [9]: dramatic decreases in tumor volume size
- % Cell Migration ([3]; 0.6 μM, 48 h, 250 μM AG): 37.8 (±3.3) %
- inhibition at 0.6 µM [3, 12]: 20.3%
- IC50 ([4]; Homo sapiens, L3.6pl): 0.99 µM
- L3.6pl MTD [4]: 0.6 µM
- anti-invasive properties (in words) [10]: good anti-invasive properties

SMILES: NCCCNCCCNCC1CCCCCCCCCCCCCC1 [Compound 47a, N^1-(3-aminopropyl)-N^3-(cyclopentadecylmethyl)propane-1,3-diamine]
- IC50 ([1]; Cricetulus griseus, CHO): 82.9 µM
- IC50 ([2]; Cricetulus griseus, CHO-MG): 87.3 µM
- tumor growth in vivo ([9]; mouse studies, preliminary): inhibit tumor growth in vivo
- tumor volume size [9]: dramatic decreases in tumor volume size
- anti-migration property (in words) [3]: have this anti-migration property
- % Cell Migration ([3]; 0.6 μM, 48 h, 250 μM AG): 29.2 (±3.2) %
- % Cell Migration ([3]; 80 μM (MTD of the conjugate), 48 h): 26.2 (±1.3) %
- inhibition at 80 µM ([3]; Homo sapiens, L3.6pl, 80 μM (MTD of the conjugate), 48 h): 44.8%
- inhibition at 0.6 µM [3, 12]: 38.4%
- anti-migration ability relative to parent 44a (in words) [3]: highest inhibition; also recorded: dramatic increase in anti-migration ability; also recorded: significant improvement in anti-migration ability
- IC50 ([4]; Homo sapiens, L3.6pl): 89.4 µM
- MTD higher than 0.6 μM (MTD of 44a) ([4]; L3.6pl): > 130 fold
- L3.6pl MTD [4]: 80 µM
- less toxic than the parent (44a) ([4]; relative to 44a): about 130 times
